Experimental data taken from patent US11903385B1, “1-(butyl(2-hydroxy-3-(naphthalen-1-yloxy)propyl)amino)-3-(naphthalen-2-yloxy)propan-2-ol as an eco-friendly insecticidal agent against Spodoptera littoralis (boisd.)” (KING FAISAL UNIVERSITY, priority 2023, dated 2024).
Values after ≈ are worked out from the molar mass of the structure shown. Like-named read-outs stand apart in the source and are kept apart here.

What was measured:
[1] = tested on: S. littoralis larvae; assay: Insecticidal leaf dip bioassay screening; settings: 72 h; for Toxicity ratio: fenoxycarb's LC50 / the compound's LC50; for LC50: Spodoptera littoralis, foliar
Protocol: Until usage, the stocks were kept in a refrigerator. The target substance test results were noted & the concentrations needed to destroy 50% (LC50) of S. littoralis larvae were calculated. The target compound was employed in five different concentrations, and 0.1% Tween 80 was employed as a surfactant. Castor bean leaf discs (nine centimeters in diameter) were dipped in the concentration under test for ten seconds, then fed to 2th & 4th larvae, which were roughly the same size and housed in glass jars (five lb). Each action was carried out 3 times with ten larvae each. The mortality equalized via Abbott's formula. Calculations of mortality setback line were measurably rummage via probity analysis. […] The mortality results of larval insect were estimated through employing probit analysis through a statistics (LDP-line) equation which estimate the LC50 values with 95% fiducially limits of lower, upper confidence limit and slope.

[2] = tested on: aquatic insects; settings: cited from earlier work
[3] = read-out: LC50 (mg/L) at 95%, 2nd instar larvae, after 72 h of treatment
[4] = read-out: LC50 (mg/L) at 95%, 4th instar larvae, after 72 h of treatment

SMILES | Toxicity ratio ([1]; 2nd instar larvae) | Toxicity ratio ([1]; 4th instar larvae) | LC50 [1, 3] | LC50 [1, 4] | LC50 [2]
CCOC(=O)NCCOc1ccc(Oc2ccccc2)cc1 [Fenoxycarb] | 1 | 1 | 2.73 mg/L (≈ 9.06 µM) | 9.18 mg/L (≈ 30.5 µM) | –
CCCCN(CC(O)COc1ccc2ccccc2c1)CC(O)COc1cccc2ccccc12 (stereo not drawn) [III, 1-(butyl(2-hydroxy-3-(naphthalen-1-yloxy)propyl)amino)-3-(naphthalen-2-yloxy)propan-2-ol] | 0.253 | 0.551 | ~10.8 mg/L (≈ 22.7 µM) | ~16.6 mg/L (≈ 35.2 µM) | –
CCc1ccc(C(=O)NN(C(=O)c2cc(C)cc(C)c2)C(C)(C)C)cc1 [tebufenozide] | – | – | – | – | 100 to 1000 µg/mL
